In patent EP0652009A1, “Identification and use of protease inhibitors” (ELI LILLY AND COMPANY, priority 1993, dated 1995):
Where two headings read alike, the source gives them in different places. Non-standard residues stand in square brackets, D forms with d. Residues, ends and D or L forms follow the SMILES beside them. Sta = CC(C)C[C@H](N)[C@@H](O)CC(=O)O; N(iPr)Gly = CC(C)NCC(=O)O

Key:
[1] = tested on: βAP production; test: Assay 4: βAP production inhibition (cellular assay, ELISA of conditioned media, normalised to MTT); type: cell-based, human; Chinese hamster; conditions: compound at 10 µg/mL; 293 751 SWE and CHO 751 SWE cells (table does not say which); βAP ELISA divided by MTT result, relative to drug-free control; mean and standard deviation of at least six replicate assays
From the text: The test system used to measure the βAP production inhibition activity is typically a cellular assay or an animal model. Preferably, the βAP production inhibition activity is obtained by direct measurement of βAP production in a cellular assay, as described in WO9410569, the full disclosure of which is incorporated herein by reference. This assay is exemplified in Assay 4, below.
Two cell lines (human kidney cell line 293 and Chinese hamster ovary cell line CHO) were stably transfected with the gene for APP-751 containing the double mutation Lys₆₅₁-Met₆₅₂ to Asn₆₅₁-Leu₆₅₂ (APP-751 numbering) commonly called the Swedish mutation using the method described in Citron et al., (1992) Nature 360:672-674. The transfected cell lines were designated as 293 751 SWE and CHO 751 SWE, and were plated in Corning 96 well plates at 2.5x10⁴ or 1x10⁴ cells per well respectively in Dulbecco's minimal essential media plus 10% fetal bovine serum. Following overnight incubation at 37°C in an incubator equilibrated with 10% carbon dioxide (CO₂), the media were removed and replaced with 200 µL per well of media containing an aspartyl protease inhibitor. After a two hour pretreatment period, the media were again removed and replaced with fresh media containing the aspartyl protease inhibitor and the cells were incubated for an additional two hours.
After treatment, plates were centrifuged in a Beckman GPR at 1200 rpm for five minutes at room temperature to pellet cellular debris from the conditioned media. From each well, 100µL of conditioned media were transferred into an ELISA plate precoated with antibody 266 against βAP-13-28 (Seubert et al., supra.) and stored at 4°C overnight. An ELISA assay employing labelled antibody 6C6 (against βAP-1-16) was run the next day to measure the amount of βAP produced.
Cytotoxic effects of the compounds were measured by a modification of the method of Hansen et al., (1989) J. Immun. Meth. 119:203-210. To the cells remaining in the tissue culture plate, was added 25 µL of a 3,(4,5-dimethylthiazol-2-yl)2,5-diphenyltetrazolium bromide (MTT) stock solution (5 mg/mL) to a final concentration of 1 mg/mL. Cells were incubated at 37°C for one hour, and cellular activity was stopped by the addition of an equal volume of MTT lysis buffer (20% w/v sodium dodecylsulfate in 50% DMF, pH 4.7). Complete extraction was achieved by overnight shaking at room temperature. The difference in the OD562nm and the OD650nm was measured in a Molecular Devices UVmax microplate reader as an indicator of the cellular viability.
The results of the βAP ELISA were fit to a standard curve and expressed as ng/mL βAP peptide. In order to normalize for cytotoxicity, these βAP results were divided by the MTT results and expressed as a percentage of the results from a drug-free control.
The compounds prepared above in Examples 9, 12, 13, 20-23, 23A, 24, 30, 41-43, 45, and 48 were assayed for βAP production inhibition activity in cells at 10 µg/mL using Assay 4. The results presented in Assay Table 4, below, are the mean and standard deviation of at least six replicate assays. Assay Table 4

[2] = target: T1, Human liver cathepsin D (Homo sapiens, UniProt P07339); test: Assay 2: cathepsin D inhibition activity (non-cellular fluorometric assay); type: biochemical; design: Human liver cathepsin D (Athens Research and Technology, Athens, GA); purchased Athens Research and Technology, Athens, GA; host or cells: human liver (by the product's printed name)
Description: (§1) A second non-cellular assay for determining in vitro aspartyl protease inhibitory activity utilizes a microtiter plate, where a suitable aspartyl protease, such as cathepsin D is added to each well together with controls. A suitable fluorometric substrate is added to each well. The resultant reaction mixture is allowed to react for a preselected time, e.g., 30 minutes. After enzyme activity is terminated, the substrate or its product may be determined fluorometrically and then the protease inhibition activity may be calculated based on the rates of substrate turnover. This assay is exemplified in Assay 2, below.
(§2) A fluorometric assay was adapted from the method disclosed by Murakami et al., (1981) Anal. Biochem. 110:232-239 for measuring renin activity. Human liver cathepsin D (Athens Research and Technology, Athens, GA) was diluted in assay buffer, 200mM NaOAc, pH 4.5, 150mM NaCl to 500 ng/mL and then 100 µL of this cathepsin D solution was added to each well of a 96 well plate with the exception of control wells which received just 100 µL of assay buffer. Compound stocks were prepared by dissolving an aspartyl protease inhibitor in DMSO for each concentration tested in the assay and then 5 µL of compound stock was added to each of the wells prepared above. Blank and enzyme control wells each received 5 µL of the DMSO vehicle.
(§3) Following a ten minute incubation at 25°C to allow enzyme/compound interaction, 5 µL of 500µM fluorometric substrate (Suc-Arg-Pro-Phe-His-Leu-Leu-Val-Try-AMC [SEQ ID NO:4], Bachem Biosciences, Philadelphia, PA) in DMSO was added per well to initiate the reaction. After incubation at 37°C for 30 minutes, cathepsin D activity was terminated by the addition of 100 µL per well of 400 mU/mL microsomal leucine aminopeptidase (EC 3.4.11.2, Sigma, St. Louis, MO) in 1M Tris-HCl, pH 8.0.
(§4) The plates were then analyzed in a fluorometer (CytoFluor 2350, Millipore, Bedford, MA) with an excitation wavelength of 360nm and an emission wavelength of 460nm, in order to check for background fluorescence due to test compounds. Following a two hour incubation at 37°C, to allow the aminopeptidase to release the fluorophore, 7-amido-4-methylcoumarin (AMC) from the products of cathepsin D cleavage, the plates were again analyzed in the fluorometer. In order to check for potential false positives, i.e., inhibitors of microsomal leucine aminopeptidase, residual aminopeptidase activity was monitored directly in each well by the addition of 20 µL/well of 2.5mM Leu-pNA (Bachem Biosciences, Philadelphia, PA) in 10% DMSO. Aminopeptidase activity was measured as an increase in the absorbance at 405nm in a UVmax microplate reader (Molecular Devices, Menlo Park, CA).
(§5) The compounds prepared in Examples 9, 12, 13, 20-23, 23A, 24, 30, 41-43, 45, and 48 were assayed at 10 µg/mL for cathepsin D inhibition activity using Assay 2. Cathepsin D activity was linear under these conditions and the results are expressed as percent inhibition of the control activity in Assay Table 2, below. All results presented are the mean and standard deviation of at least four replicate assays. Assay Table 2
Target sequence in this assay (P07339 65-412): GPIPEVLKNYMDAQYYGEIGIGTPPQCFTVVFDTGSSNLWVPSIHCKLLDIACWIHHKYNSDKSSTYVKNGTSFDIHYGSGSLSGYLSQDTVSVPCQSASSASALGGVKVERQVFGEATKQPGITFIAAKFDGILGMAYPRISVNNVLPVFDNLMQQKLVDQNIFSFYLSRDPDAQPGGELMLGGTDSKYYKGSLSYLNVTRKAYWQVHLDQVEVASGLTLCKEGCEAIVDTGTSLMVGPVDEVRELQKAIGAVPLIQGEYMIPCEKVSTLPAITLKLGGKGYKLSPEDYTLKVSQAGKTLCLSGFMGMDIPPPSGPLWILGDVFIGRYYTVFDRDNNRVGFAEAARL

[3] = target: T1, Human liver cathepsin D; test: as above; type: biochemical; design: Human liver cathepsin D (Athens Research and Technology, Athens, GA); purchased Athens Research and Technology, Athens, GA
Description: as §1, §2, §3, §4, §5
Target sequence in this assay (P07339 169-412 limits assumed): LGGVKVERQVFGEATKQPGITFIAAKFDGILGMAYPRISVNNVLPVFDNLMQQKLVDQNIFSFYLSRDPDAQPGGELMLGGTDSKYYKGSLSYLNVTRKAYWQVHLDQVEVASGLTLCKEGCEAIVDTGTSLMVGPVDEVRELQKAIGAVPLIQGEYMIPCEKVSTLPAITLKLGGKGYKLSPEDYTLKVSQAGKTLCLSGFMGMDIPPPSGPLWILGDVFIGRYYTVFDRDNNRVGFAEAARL
Target sequence in this assay (P07339 65-162 limits assumed): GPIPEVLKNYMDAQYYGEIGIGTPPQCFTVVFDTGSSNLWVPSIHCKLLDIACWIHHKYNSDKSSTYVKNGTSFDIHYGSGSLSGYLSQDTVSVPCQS

[4] = compound at 10 µg/mL, percent inhibition of control activity, mean and standard deviation of at least four replicate assays

Structure (SMILES) | inhibition at 10 µg/mL [2] [%] | βAP Production Inhibition [1] [%] | other results
CC[C@H](C)[C@H](NC(=O)C[C@H](O)[C@H](CC(C)C)NC(=O)[C@@H](NC(=O)CNC(C)C)C(C)C)C(=O)N[C@@H](C)C(=O)N[C@H](C(=O)O)[C@@H](C)O [Example 48, (CH3)2CH-Gly-Val-Sta-Ile-Ala-Thr-OH] (H-[N(iPr)Gly]V[Sta]IAT-OH) | 79.9 ± 2.7 | 1.6 ± 19.8 | –
Cc1cccc2ccc(C(=O)N[C@@H](CC(N)=O)C(=O)N[C@@H](Cc3ccccc3)[C@H](O)Cc3ccccc3C(=O)NC(C)(C)C)nc12 [Example 9, [1S-(1R*,4R*,5S*)]-N-(1-(2-Amino-2-oxoethyl)-2-oxo-3-aza-4-phenylmethyl-5-hydroxy-6-(2-(1-t-butylamino-1-oxomethyl)phenyl)hexyl)-8-methylquinolin-2-yl carboxamide] | – | – | inhibition at 10 µg/mL [1]: 44.4 ± 7.7%; inhibition at 10 µg/mL [3]: 44.4 ± 1.9%
CC(C)C(NC(=O)C(Cc1cccc2ccccc12)NC(=O)OC(C)(C)C)C(=O)NC(Cc1ccccc1)C(O)Cc1ccccc1C(=O)NC(C)(C)C (stereo not drawn) [Example 24, [2R-(2R*,3S*,6S*,9R*)]-N-t-Butyl-2-[2-hydroxy-3-phenylmethyl-4,7-diaza-5,8-dioxo-6-(1-methylethyl)-9-N(t-butoxycarbonyl)amino-10-naphth-1-yl]decyl benzamide] | – | 92.7 ± 1.4 | Cathepsin D Inhibition [3, 4]: 92.7 ± 0.5%
Cc1ccc(C(=O)C2NCCc3ccccc32)cc1C(=O)N[C@@H](Cc1ccccc1)[C@H](O)CN1C[C@H]2CCCC[C@H]2C[C@H]1C(=O)NC(C)(C)C (relative stereo) [Example 30, [3S-(3R*,4aR*,8aR*,2'S*,3'R*)]-2-[2'-Hydroxy-3'-phenylmethyl-4'-aza-5'-oxo-5'-(3''-[1''',2''',3''',4'''-tetrahydroisoquinolin-1'''-ylcarbonyl]-6''-methyl)phenyl]pentyl-decahydroisoquinoline-3-N-t-butylcarboxamide] | – | 69.2 ± 2.2 | Cathepsin D Inhibition [3, 4]: 69.2 ± 3.5%
CC(C)C[C@H](NC(=O)[C@@H](NC(=O)[C@@H](NC(=O)CN)C(C)C)C(C)C)[C@@H](O)CC(=O)N[C@@H](C)C(=O)N[C@H](C(=O)O)[C@@H](C)O [Example 43, Gly-Val-Val-Sta-Ala-Thr-OH] (H-GVV[Sta]AT-OH) | 87.9 ± 2.4 | 16.2 ± 8.5 | –
CC(C)C(NC(=O)C(Cc1cccc2ccccc12)NC(=O)OC(C)(C)C)C(=O)NC(Cc1ccccc1)C(O)Cc1ccccc1C(=O)NC(C)(C)C (stereo not drawn) [Example 23, [2R-(2R*,3S*,6S*,9S*)]-N-t-Butyl-2-[2-hydroxy-3-phenylmethyl-4,7-diaza-5,8-dioxo-6-(1-methylethyl)-9-N(t-butoxycarbonyl)amino-10-naphth-1-yl]decyl benzamide] | – | – | inhibition at 10 µg/mL [1]: 96.3 ± 2.8%; inhibition at 10 µg/mL [3, 4]: 96.3 ± 0.9%

More lines, main results first:

inhibition at 10 µg/mL [2] [%] | Structure (SMILES) | βAP Production Inhibition [1] [%] | other results
30.6 ± 4.8 | CC(C)C[C@H](NC(=O)[C@@H](NC(=O)CN)C(C)C)[C@@H](O)CC(=O)N[C@@H](C)C(=O)N[C@H](C(=O)O)[C@@H](C)O [Example 45, Gly-Val-Sta-Ala-Thr-OH] (H-GV[Sta]AT-OH) | 3.3 ± 1.1 | –
89.5 ± 1.3 | CC(C)C[C@H](NC(=O)[C@@H](NC(=O)[C@@H](NC(=O)CNC(C)C)C(C)C)C(C)C)[C@@H](O)CC(=O)N[C@@H](C)C(=O)N[C@H](C(=O)O)[C@@H](C)O [Example 42, (CH3)2CH-Gly-Val-Val-Sta-Ala-Thr-OH] (H-[N(iPr)Gly]VV[Sta]AT-OH) | 13.1 ± 7.5 | –
98.3 ± 0.1 | CC(=O)NCC(=O)N[C@H](C(=O)N[C@H](C(=O)N[C@@H](CC(C)C)[C@@H](O)CC(=O)N[C@@H](C)C(=O)N[C@H](C(=O)O)[C@@H](C)O)C(C)C)C(C)C [Example 41, CH3C(O)-Gly-Val-Val-Sta-Ala-Thr-OH] (Ac-GVV[Sta]AT-OH) | -6.2 ± 6.2 | –
